{"source": "patent US9707267B2", "about": "“Beta-turn peptidomimetic cyclic compounds for treating dry eye” (Mimetogen Pharmaceuticals, Inc., priority 2008, dated 2017)", "test_system": "naïve rats", "experiment": "Tear mucin production in naïve rats following topical instillation, ELLA (Example 4)", "format": "in vivo, rat", "procedure": "Dose-ranging studies were conducted on the topical instillations of compound D3 in stimulating mucin production in naïve rats. Thirty male sprague dawley rats were divided into five groups of six rats per group and were treated bilaterally once every hour for six consecutive hours with either saline, 0.4% of compound D3, 1.0% of compound D3, 2.5% of compound D3 and 0.00053% of NGF. Once anesthetized, each animal received a 5 μL topical instillation of test article into the lower conjunctival sac of both eyes using a calibrated micropipette.\nTear fluid washings from both eyes were pooled and were collected prior to treatment and following six hourly instillations of saline, compound D3 and NGF. All tear fluid washings were evaluated for mucin concentration by an enzyme-linked lectin assay (ELLA).\nThe mean and standard deviation (SD) were used to characterize the data. The differences in mucin concentration was calculated from treated minus baseline from groups of rats. Continuous mucin changes between two groups from baseline were evaluated using the paired t test. The mucin changes between more than two treatment groups were analyzed using an analysis of variance. The median mucin changes between treatment groups were compared against a theoretical median of zero using the […]. A two-sided test with P<0.05 was considered to be statistically significant. Statistical analysis were performed using GraphPad Prism 4.0C (GraphPad Software Inc., La Jolla, Calif.).", "key": {"[1]": {"settings": "2.5%, 5 μL bilaterally once every hour for six hours"}}, "data": [{"smiles": "NCCCC[C@@H]1NC(=O)[C@H](CCC(=O)O)NC(=O)c2cc([N+](=O)[O-])ccc2OCCC(C(=O)NCC(=O)O)NC1=O", "note": "(stereo partly shown) [Compound D3]", "values": [{"measurement": "mean changes in mucin concentration (in words)", "setting": "0.4%, 1.0%, 2.5%, six hourly instillations", "result": "dose-dependent"}, {"measurement": "tear mucin concentration at baseline", "setting": "2.5% group, prior to treatment", "result": "3.0 ± 1.9", "unit": "ng/µL"}, {"measurement": "change in mucin concentration from baseline", "setting": "[1]", "result": "4.0 ± 3.5", "unit": "ng/µL"}, {"measurement": "tear mucin concentration after treatment", "setting": "[1]", "result": "7.0 ± 4.5", "unit": "ng/µL"}]}]}
